pEC50: −log10 of the molar value. Entries after “also recorded” stand apart in the source; their conditions may differ. Read-outs that look alike come from different tables or passages of the source.
Experiments:
[1] = system: mouse ileal loops; experiment: Basal fluid absorption in closed mouse ileal loops, nanoparticle-conjugated peptides, with or without Tenapanor; format: in vivo
Experimental: (§1) All in vivo studies were performed on 8-12 week old C57B1/6N mice anesthetized with isofluorane and kept at 37° C. via heating lamps and rectal thermal probes.
(§2) Effect on basal fluid transport and effect of Tenapanor. Mice operated on as above had 3-4 cm closed ileal loops inoculated with 150-μL PBS containing 400-nM nanoparticle-CP-2 or -N3SP-1Δ7. After 4 h, the loops were drained and inoculated with 150-μL PBS. 30 min later, the animals were sacrificed and loop weight/length determined. In parallel studies, Tenapanor (10 μM) was present in both incubation periods. Similar to the BODIPY-conjugated peptide studies, the effects of nanoparticle-CP-2 or N3SP-1Δ7 (4 μM) compared to PBS alone were determined on net fluid secretion produced by inoculation of 0.1-μg CTx. The nanoparticle-peptides plus 0.1-μg CTx in 150-μL PBS were inoculated in 3-4 cm long closed ileal loops. Additional controls included loops exposed only to 150-μL PBS and those only exposed to the CTx/PBS. 4 h later, the animals were sacrificed and loop weight/cm length was determined.

[2] = system: mouse jejunum; conditions: in vivo
[3] = system: mouse jejunum; conditions: in vivo; remark: listed apart in the source
[4] = system: NHE3; experiment: NHE3 activity in PS120/HA3-NHE3/NHERF2 cells (BCECF); format: cell-based, rabbit
[5] = system: mouse jejunum; experiment: Anti-CD3 monoclonal antibody-induced (TNFα-mediated inflammation) fluid secretion, mouse jejunal loops; format: in vivo
[6] = system: mouse jejunum; experiment: Basal net water transport, in vivo perfusion of mouse jejunal loops
[7] = system: CTx-induced electrogenic anion secretion; experiment: Short-circuit current (Isc) of CTx-treated mouse jejunal loops, Ussing chamber/voltage clamp; conditions: for Isc in CTx treated loops compared to CTx in PBS: 400 nM peptide with 1-μg CTx for 6 h, no further secretagogue; for peak increases in Isc with sequential addition of FSK and carbachol: CTx exposed loops, 10-μM FSK then 10-μM CCH serosal, CP-1 vs N3SP-1
[8] = system: NHE3; experiment: NHE3 activity in polarized Caco-2/BBe/HA3-NHE3 cells (BCECF); format: cell-based; conditions: for pEC50: Hill equation
[9] = system: mouse ileal loops; experiment: CTx-induced fluid secretion in closed mouse ileal loops, nanoparticle-conjugated peptides; format: in vivo; conditions: nanoparticle-peptide 4 μM with 0.1-μg CTx, 4 hours
Experimental: as §1, §2

[10] = Nanoparticle characterization: hydrodynamic diameter, zeta potential, stability; format: physicochemical; conditions: CR5 with peptide, 30:1 polymer:peptide weight ratio
Experimental: (§3) PBAE polymer and peptide were separately dissolved in pH 7.4 150-mM PBS and combined at a 1:1 volume ratio. Final concentrations of the components were 6-ng/μL peptide and 180-ng/μL polymer (30:1 polymer: peptide weight ratio). Polymer and peptide nanoparticles were allowed to self-assemble at room temperature for 10 minutes. For characterization, nanoparticles were diluted 1:5 in PBS. Hydrodynamic diameter and zeta potential were measured using a Malvern Zetasizer Pro (Malvern Panalytical, Malvern, UK). Stability was assessed by incubating nanoparticles at RT up to 45 minutes then measuring hydrodynamic diameter over 45 minutes. Nanoparticles were made immediately prior to each experiment.

[11] = system: NHE3; experiment: NHE3 activity in differentiated human enteroid monolayers after nanoparticle delivery of peptide; format: cell-based; conditions: nanoparticles (250 nM) 18 h, FSK exposure, n=4
Experimental: (§4) NHE3 activity in PS120, Caco-2/BBe cells and human jejunal enteroids was determined fluorometrically (Photon Technologies Incorporated) using the intracellular pH sensitive dye BCECF, as reported (Levine et al., 1993; Sarker et al., 2008; Foulke-Abel et al., 2020). PS120/HA3-NHE3 cells were seeded on glass cover slips and studied at 70-80% confluency. Caco-2/BBe/HA3-NHE3 cells were grown to confluency on Transwell inserts (polyester, 0.4-μm pore size) and studied approximately 14-16 days pod. Human duodenal enteroid monolayers on Transwell inserts were differentiated for 5 days in the absence of Wnt3a, R-spondin, and noggin as described (Noel et al., 2017; Staab et al., 2020).
(§5) Rates of Na^+/H^+ exchange were determined as Na^+-dependent alkalinization in the presence of 50-μM HOE-694 (to inhibit all other plasma membrane NHE isoforms) in HCO3-free solutions, with internal calibration using the nigericin/K+ method, as previously described (Sarker et al., 2008; Foulke-Abel et al., 2020). Kinetic analysis was used for PS120 cell studies (expressed as Vmax) and initial rates (ΔpH/min) for Caco-2/BBe cells, mouse intestine in vitro, and human enteroids. For in vitro mouse jejunal transport studies, NHE3 activity (in the presence of 50-μM HOE-694) was measured using SNARF-4F at 37° C. in a perfusion chamber using a two-photon microscope (Olympus FV1000) and 25× objective, as described (Murtazina et al., 2011).
as §3, with “Nanoparticles were made immediately prior to each experiment.” left out

[12] = system: adenylate cyclase-cAMP; experiment: cAMP assay in human enteroid monolayers exposed to FSK; format: cell-based; conditions: nanoparticles with 250-nM peptide, FSK (10 μM) 45 min, CP-2 vs N3SP-1Δ7
Experimental: Human jejunal enteroid monolayers on Transwell inserts (Corning Cat #: 3470) were differentiated for 5 days and then in serum-free media were exposed apically to nanoparticles containing either 250-nM CP-2 or N3SP-1Δ7. The peptide and polymer in PBS were prepared just before use, allowed to combine for 10 min before being added to the apical surface of enteroid monolayers at room temperature. Monolayers were incubated for 4 hours at 37° C., 5% CO2 incubator before the nanoparticles were removed, then monolayers were washed 3 times with cold PBS and changed to differentiation media and moved to a 37° C. incubator. Differentiation media was removed 24 hours later and washed twice with CMGF-media (Advanced DMEM/F12 with 10-mM Hepes, 10-mM GlutaMax, and 1000 Units/mL Penn/Strep). Next, 100 μL of CMGF-media containing 10-mM Theophylline, 50-μM Cilostazol and 50-μM Rolipram was added to the apical and basolateral surfaces followed by exposure to FSK (10 μM) at 37° C., 5% CO2, for 45 min before apical and basolateral media were collected and cells were lysed in 200-μL 0.1 M HCl for cAMP analysis. CAMP in apical, basolateral, and cells was determined using nonradioactive, CAMP-ELISA kits from ENZO Life Sciences (Loerrach, German), using the acetylation protocol in which the yellow-colored product is inversely proportional to the amount of CAMP present in the sample.

[13] = system: NHE3; experiment: Effect of N-terminal truncations of N3SP-1 on NHE3 activity in human enteroids (BCECF-fluorometry); format: cell-based; conditions: human duodenal enteroids, Hill equation; for Stimulation of NHE3 Activity: basal NHE3 activity, BCECF-fluorometry; for pEC50: stimulation of basal NHE3 activity
Experimental: as §4, §5
Concentration dependent effects on NHE3 basal activity was determined using BCECF-fluorometry. Kinetic analysis was determined of extent of stimulation of basal NHE3 activity; analysis was by use of the Hill equation.
Given the ability of N3SP-1Δ7 to prevent CTx-induced fluid secretion in vivo (FIG. 3E) and to stimulate basal NHE3 activity and prevent cAMP inhibition in human enteroids (FIG. 4C), further studies were carried out with human enteroids to determine the shortest N3SP-1-related peptide that would stimulate human NHE3. A series of N3SP-1 N-terminal truncations was synthesized and concentration-dependent stimulation of NHE3 activity determined using human jejunal enteroids.

[14] = system: NHE3; experiment: NHE3 stimulation, summary statement over models and delivery systems; format: cell-based; conditions: using either delivery system (maleimide or nanoparticles); read-out: EC50 for stimulation of basal and second messenger inhibited NHE3
[15] = system: NHE3; experiment: NHE3 activity in mouse jejunum in vitro (two-photon microscope/SNARF-4F); format: cell-based

CN1Cc2c(Cl)cc(Cl)cc2[C@H](c2cccc(S(=O)(=O)NCCOCCOCCNC(=O)NCCCCNC(=O)NCCOCCOCCNS(=O)(=O)c3cccc([C@@H]4CN(C)Cc5c(Cl)cc(Cl)cc54)c3)c2)C1 [Tenapanor, reference compound]
effect on N3SP-1Δ7 increased baseline fluid absorption ([1]; pretreatment with 10-μM Tenapanor): prevented

CP-1: 21 aa control peptide representing aa 585-605 of rabbit NHE3 (YLLRESASAVCLDMQSLEQRR; UniProt P26432 585-605, looked up, fragment)
effect on CTx-stimulated net fluid secretion (loop weight/cm) [2]: did not alter fluid accumulation
localization of NHE3 in CTx-treated jejunum [2]: NHE3 was internalized
effect on STa-induced intestinal fluid accumulation [3]: not observed
effect on basal NHE3 activity compared to BODIPY alone [4]: no significant effect
effect on basal NHE3 activity in the absence of BODIPY conjugation [4]: Neither CP-1 nor N3SP-1 altered basal NHE3 activity
effect on anti-CD3 antibody-induced luminal fluid accumulation ([5]; mouse, in vivo, ip): increased luminal fluid accumulation
jejunal net water transport ([6]; mouse, in vivo): 4.2 µL/min/cm
Isc in CTx treated loops compared to CTx in PBS [7]: slightly, but not significantly, greater
peak increases in Isc with sequential addition of FSK and carbachol [7]: not different
EGF stimulation of NHE3 activity in presence of peptide [8]: 38%

CP-2: control peptide, N3SP-1 lacking first ten N-terminal amino acids (rabbit NHE3 residues 578-605) (TVEASVSYLLRESASAVCLDMQSLEQRR; UniProt P26432 578-605, looked up, fragment)
effect on CTx-stimulated net fluid secretion (loop weight/cm) [2]: Results similar to those with N3SP-1 and CP-1
effect on CTx-induced fluid in ileal loops (loop weight/length) [9]: did not reduce the residual loop volume
surface zeta potential (electrophoretic light scattering) [10]: 24.6±0.5 mV
nanoparticle diameter (DLS) ([10]; aqueous): 319±55 nm
NHE3 activity after FSK, % of same peptide without FSK [11]: 77.2%
FSK-increased intracellular cAMP [12]: similar
residual fluid in presence of Tenapanor, CP2 vs N3SP-1Δ7 ([1]; nanoparticle conjugated peptide 400 nM, Tenapanor (10 μM) in both incubation periods): no difference in residual fluid

N3SP-1 N-terminal truncation of 5 aa: TPRPSTVEASVSYLLRESASAVCLDMQSLEQRR [Peptide N3SP-1Δ5]
Stimulation of NHE3 Activity [13]: YES (39%)
pEC50 [13]: 6.81

N3SP-1 N-terminal truncation of 6 aa: PRPSTVEASVSYLLRESASAVCLDMQSLEQRR [Peptide N3SP-1Δ6]
Stimulation of NHE3 Activity [13]: YES (40%)
pEC50 [13]: 6.82

N3SP: general name of the NHE3 stimulatory peptide (N3SP-1 and active truncations) (RPSTVEASVSYLLRESASAVCLDMQSLEQRR) [Peptide N3SP]
pEC50 [14]: ~6.82

NHE3 mimetic peptide, rabbit NHE3 aa 568-605: NVDFSTPRPSTVEASVSYLLRESASAVCLDMQSLEQRR [Peptide N3SP-1]
effect on CTx-stimulated net fluid secretion (loop weight/cm) [2]: prevented CTx-stimulated fluid secretion
localization of NHE3 in CTx-treated jejunum [2]: NHE3 was detected on the CTx-treated jejunal BB
effect on STa-induced intestinal fluid accumulation [3]: significantly reduced
stimulation of basal NHE3 activity compared to CP-1 ([15]; BODIPY-conjugated peptide 400 nM): 57%
effect on inhibition of NHE3 by FSK ([15]; BODIPY-conjugated peptide pretreatment, FSK (10 μM)): prevented inhibition
Stimulation of NHE3 Activity [13]: YES (38%)
pEC50 [13]: 6.82
stimulation of basal NHE3 activity compared to CP-1 ([4]; BODIPY-conjugated peptide 400 nM, PS120/HA3-NHE3/NHERF2 cells): 61%
effect on inhibition of NHE3 by 4-Br-A23187 ([4]; BODIPY-conjugated peptide pretreatment, 0.5-μM A23187, PS120 fibroblasts): prevented inhibition
effect on basal NHE3 activity in the absence of BODIPY conjugation ([4]; unconjugated peptide 400 nM, PS120 cells): No stimulatory effect; also recorded: Neither CP-1 nor N3SP-1 altered basal NHE3 activity
effect on anti-CD3 antibody-induced luminal fluid accumulation ([5]; 400 nM peptide in loop, 200-μg anti-CD3 antibody IP, 2.5 h): prevents fluid secretion
difference in net water transport between N3SP-1 and CP-1 perfused jejunal loops ([6]; 400 nM, n=5, p=0.0004): 56.6 ± 15.1 µL/min/cm
Isc in CTx treated loops compared to CTx in PBS [7]: slightly, but not significantly, greater; also recorded: not altered
peak increases in Isc with sequential addition of FSK and carbachol [7]: not different
stimulation of basal NHE3 activity compared to CP-1 ([8]; BODIPY-conjugated peptide 400 nM, Caco-2/BBe/HA3-NHE3 cells): 41%
pEC50 ([8]; BODIPY-conjugated peptide added apically, Caco-2/BBe cells, read-out: EC50 of prevention of FSK inhibition of NHE3): 6.80
effect on inhibition of NHE3 by FSK ([8]; BODIPY-conjugated peptide pretreatment, FSK (10 μM), Caco-2/BBe cells): prevented inhibition
effect on inhibition of NHE3 by carbachol ([8]; BODIPY-conjugated peptide pretreatment, carbachol (10 μM), Caco-2/BBe cells): prevented inhibition
concentration of maximal effect on basal NHE3 activity ([8]; BODIPY-conjugated peptide, Caco-2/BBe/HA3-NHE3 cells): 400 nM
pEC50 ([8]; BODIPY-conjugated peptide, Caco-2/BBe/HA3-NHE3 cells, read-out: EC50 of stimulation of basal NHE3 activity): 6.82
EGF stimulation of NHE3 activity in presence of peptide ([8]; EGF (200 ng/mL), BODIPY-conjugated peptide 400 nM, Caco-2/BBe cells): 35%
